Data from ChEMBL document CHEMBL5543137, “Design and Synthesis of Novel Ultralong-Acting Peptides as EDP-EBP Interaction Inhibitors for Pulmonary Fibrosis Treatment” (J Med Chem, 2024).
Active and inactive are the calls of the source. The calls are words filed in the database; no cut-off is given here. Starred links: 1 amine or outer side, 2 acyl side, 3 side chain; linkers in the order of their positions; H or OH if unused. Non-standard residues stand in square brackets, D forms with d. Residues, ends and D or L forms follow the SMILES beside them. *: point of attachment. C20 diacid = O=C(O)CCCCCCCCCCCCCCCCCCC(=O)*; γGlu = O=C(O)[C@H](CCC(=O)[*:2])N[*:1]; Iva = CC[C@](C)(N)C(=O)O; PEG2 = NCCOCCOCCC(=O)O

What was measured:
Mus musculus [1] = assay: Antifibrotic activity against BLM-induced C57BL/6 mouse pulmonary fibrosis model assessed as increase in ECM degradation at 240 ug/kg/day, sc administered for 2 weeks starting from 7 days post BLM induction and measured after 21 days post BLM induction by gene enrichment analysis; format: functional, organism-based; conditions: dose 240.0 µg/kg/day
Mus musculus [2] = assay: Antifibrotic activity against BLM-induced C57BL/6 mouse pulmonary fibrosis model assessed as reduction in Col5a1 gene expression at 240 ug/kg/day, sc administered for 2 weeks starting from 7 days post BLM induction and measured after 21 days post BLM induction by ScRNA-sequencing analysis; format: functional, organism-based; conditions: dose 240.0 µg/kg/day
RAW264.7 [3] = assay: Upregulation of MMP-12 expression in mouse RAW264.7 cells at 10 uM incubated for 6 to 24 hrs; format: functional, cell-based; conditions: time 6-24 hrs
Mus musculus [4] = assay: Antifibrotic activity against BLM-induced C57BL/6 mouse pulmonary fibrosis model assessed as reduction in MMP-12 expression at 240 ug/kg/day, sc administered for 2 weeks starting from 7 days post BLM induction and measured after 21 days post BLM induction in presence of GM6001; format: functional, organism-based; conditions: dose 240.0 µg/kg/day
A549 [5] = assay: Antifibrotic activity against BLM-induced human A549 cells assessed as reduction in MMP-12 expression at 10 uM after 24 hrs by Western blotting analysis; format: functional, cell-based
Mus musculus [6] = assay: Antifibrotic activity against BLM-induced sc dosed C57BL/6 mouse pulmonary fibrosis model assessed as minimum effective dose administered for 2 weeks starting from 7 days post BLM induction and measured after 21 days post BLM induction; format: functional; conditions: C57BL/6, 336 h, dose 30-240 µg/kg, read-out: MED
Mus musculus [7] = assay: Antifibrotic activity against BLM-induced C57BL/6 mouse pulmonary fibrosis model assessed as reduction in Col3a1 gene expression at 240 ug/kg/day, sc administered for 2 weeks starting from 7 days post BLM induction and measured after 21 days post BLM induction by ScRNA-sequencing analysis; format: functional, organism-based; conditions: dose 240.0 µg/kg/day
A549 [8] = assay: Antifibrotic activity against BLM-induced human A549 cells cocultured with RAW264.7 cells assessed as reduction in Fn expression at 10 uM after 24 hrs by Western blotting analysis; format: functional, cell-based
RAW264.7 [9] = assay: Antifibrotic activity against BLM-induced mouse RAW264.7 cells assessed as upregulation of MMP-12 expression at 10 uM incubated for 6 to 24 hrs by ELISA; format: functional, cell-based; conditions: time 6-24 hrs
Mus musculus [10] = assay: Antifibrotic activity against BLM-induced C57BL/6 mouse pulmonary fibrosis model assessed as reduction in mortality at 150 ug/kg, sc administered for 2 weeks starting from 7 days post BLM induction and measured after 21 days post BLM induction; format: functional, organism-based; conditions: dose 150.0 µg/kg
TC-1 = assay: Inhibition of EBP signaling pathway in TGFalpha induced mouse TC-1 cells assessed as reduction in AKT phosphorylation at 10 uM incubated for 24 hrs by Western blotting analysis; format: cell-based
A549 [11] = assay: Antifibrotic activity against TNFalpha-induced human A549 cells assessed as downregulation of Fn expression level at 10 uM incubated for 24 hrs by Western blotting analysis; format: functional, cell-based
[12] = Stability in rat serum measured upto 48 hrs by LC-MS/MS method; format: ADME, cell-free
A549 [13] = assay: Inhibition of EBP signaling pathway in TGFalpha induced human A549 cells assessed as reduction in AKT phosphorylation at 10 uM incubated for 24 hrs by Western blotting analysis; format: cell-based
Mus musculus [14] = assay: Antifibrotic activity against BLM-induced C57BL/6 mouse pulmonary fibrosis model assessed as reduction in fibrotic accumulation in lungs at 150 ug/kg, sc administered for 2 weeks starting from 7 days post BLM induction and measured after 21 days post BLM induction by immunohistochemical staining based assay; format: functional, organism-based; conditions: dose 150.0 µg/kg
Mus musculus [15] = assay: Antifibrotic activity against BLM-induced C57BL/6 mouse pulmonary fibrosis model assessed as reduction in ECM deposition in lungs at 30 to 240 ug/kg, sc administered for 2 weeks starting from 7 days post BLM induction and measured after 21 days post BLM induction; format: functional, organism-based; conditions: dose 30-240 µg/kg
RAW264.7 [16] = assay: Antifibrotic activity against BLM-induced mouse RAW264.7 cells assessed as downregulation in TIMP-1 expression at 10 uM after 24 hrs by Western blotting analysis; format: functional, cell-based
Mus musculus [17] = assay: Antifibrotic activity against BLM-induced C57BL/6 mouse pulmonary fibrosis model assessed as downregulation of Timp1 gene expression in lung tissue at 150 ug/kg, sc administered for 2 weeks starting from 7 days post BLM induction and measured after 21 days post BLM induction by RT-qPCR assay; format: functional, organism-based; conditions: dose 150.0 µg/kg
Mus musculus [18] = assay: Antifibrotic activity against BLM-induced C57BL/6 mouse pulmonary fibrosis model assessed as reduction in proportion of fibroblasts at 240 ug/kg/day, sc administered for 2 weeks starting from 7 days post BLM induction and measured after 21 days post BLM induction; format: functional, organism-based; conditions: dose 240.0 µg/kg/day
Mus musculus [19] = assay: Antifibrotic activity against BLM-induced C57BL/6 mouse pulmonary fibrosis model assessed as reduction in Acta2 gene expression at 240 ug/kg/day, sc administered for 2 weeks starting from 7 days post BLM induction and measured after 21 days post BLM induction by ScRNA-sequencing analysis; format: functional, organism-based; conditions: dose 240.0 µg/kg/day
Mus musculus [20] = assay: Antifibrotic activity against BLM-induced C57BL/6 mouse pulmonary fibrosis model assessed as reduction in Col1a2 gene expression at 240 ug/kg/day, sc administered for 2 weeks starting from 7 days post BLM induction and measured after 21 days post BLM induction by ScRNA-sequencing analysis; format: functional, organism-based; conditions: dose 240.0 µg/kg/day
A549 [21] = assay: Inhibition of EBP signaling pathway in TGFalpha induced human A549 cells assessed as reduction in PI3K phosphorylation at 10 uM incubated for 24 hrs by Western blotting analysis; format: cell-based
Mus musculus [22] = assay: Antifibrotic activity against BLM-induced C57BL/6 mouse pulmonary fibrosis model assessed as reduction in Adamts2 gene expression at 240 ug/kg/day, sc administered for 2 weeks starting from 7 days post BLM induction and measured after 21 days post BLM induction by ScRNA-sequencing analysis; format: functional, organism-based; conditions: dose 240.0 µg/kg/day
Mus musculus [23] = assay: Antifibrotic activity against BLM-induced C57BL/6 mouse pulmonary fibrosis model assessed as reduction in lung vimentin expression at 240 ug/kg/day, sc administered for 2 weeks starting from 7 days post BLM induction and measured after 21 days post BLM induction by Western blotting analysis; format: functional, organism-based; conditions: dose 240.0 µg/kg/day
Mus musculus [24] = assay: Antifibrotic activity against BLM-induced C57BL/6 mouse pulmonary fibrosis model assessed as reduction in FN expression at 240 ug/kg/day, sc administered for 2 weeks starting from 7 days post BLM induction and measured after 21 days post BLM induction in presence of Clo-Lip; format: functional, organism-based; conditions: dose 240.0 µg/kg/day
Mus musculus [25] = assay: Antifibrotic activity against BLM-induced C57BL/6 mouse pulmonary fibrosis model assessed as reduction in Eln gene expression at 240 ug/kg/day, sc administered for 2 weeks starting from 7 days post BLM induction and measured after 21 days post BLM induction by ScRNA-sequencing analysis; format: functional, organism-based; conditions: dose 240.0 µg/kg/day
Mus musculus [26] = assay: Antifibrotic activity against BLM-induced C57BL/6 mouse pulmonary fibrosis model assessed as inhibition of activated fibroblast signature at 240 ug/kg/day, sc administered for 2 weeks starting from 7 days post BLM induction and measured after 21 days post BLM induction by gene enrichment analysis; format: functional, organism-based; conditions: dose 240.0 µg/kg/day
RAW264.7 [27] = assay: Antifibrotic activity against BLM-induced mouse RAW264.7 cells assessed as upregulation of MMP-12 protein expression at 10 uM incubated for 6 to 24 hrs by Western blotting analysis; format: functional, cell-based; conditions: time 6-24 hrs
A549 [28] = assay: Antifibrotic activity against BLM-induced human A549 cells cocultured with RAW264.7 cells assessed as reduction in Vimentin expression at 10 uM after 24 hrs by Western blotting analysis; format: functional, cell-based

With `CC[C@](C)(NC(=O)[C@@H](NC(=O)CCOCCOCCNC(=O)CCOCCOCCNC(=O)CC[C@H](NC(=O)CCCCCCCCCCCCCCCCCCC(=O)O)C(=O)O)C(C)C)C(=O)NCC(=O)N[C@@H](CO)C(=O)N1CCC[C@H]1C(=O)N[C@@H](CO)C(=O)N[C@@H](C)C(=O)N[C@@H](CCC(N)=O)C(=O)N[C@@H](CCC(=O)O)C(=O)N[C@@H](CCC(=O)O)C(=O)N[C@@H](C)C(=O)N[C@@H](CO)C(=O)N1CCC[C@H]1C(=O)N[C@@H](C)C(N)=O` ({C20 diacid-γGlu-PEG2-PEG2}-V[Iva]GSPSAQEEASPA-NH2) the Activity (Mus musculus [1]) was “Active”, the Activity (Mus musculus [2]) was “Active” and the Activity (RAW264.7 [3]) was “inactive”. The Activity (Mus musculus [4]) was “inactive”, the Activity (A549 [5]) was “inactive” and the minimal effective dose (Mus musculus [6]) was 0.03 mg/kg. The Activity (Mus musculus [7]) was “Active”, the Activity (A549 [8]) was “Active” and the Activity (RAW264.7 [9]) was “Active”. For the same compound, the Activity (Mus musculus [10]) was “Active”, the inhibition (TC-1) was “Active” and the Activity (A549 [11]) was “Active”. The Stability [12] was “Stable”, the inhibition (A549 [13]) was “Active” and the Activity (Mus musculus [14]) was “Active”. For the same compound, the Activity (Mus musculus [15]) was “Active”, the Activity (RAW264.7 [16]) was “Active” and the Activity (Mus musculus [17]) was “Active”. For the same compound, the Activity (Mus musculus [18]) was “Active”, the Activity (Mus musculus [19]) was “Active” and the Activity (Mus musculus [20]) was “Active”. For the same compound, the inhibition (A549 [21]) was “Active”, the Activity (Mus musculus [22]) was “Active” and the Activity (Mus musculus [23]) was “Active”. For the same compound, the Activity (Mus musculus [24]) was “inactive”, the Activity (Mus musculus [25]) was “Active” and the Activity (Mus musculus [26]) was “Active”. For the same compound, the Activity (RAW264.7 [27]) was “Active” and the Activity (A549 [28]) was “Active”.
